{"source": "paper PMC7243365", "about": "(Antiviral research, 2020)", "key": {"[1]": {"tested_on": "his-tagged HA (H5) protein binding to A549 cells", "design": "species or system influenza A virus H5", "conditions": "for pIC50: read-out: IC50 HA (H5) protein binding to A549 cells"}, "A549 cells": {"tested_on": "A549 cells", "assay": "Cell viability assay", "conditions": "48 h, CellTiter-Glo"}, "[2]": {"tested_on": "H1N1-GFP (A/Puerto Rico/8/34, NS1-GFP)", "format": "cell-based, influenza A virus H1N1", "conditions": "for pIC50: read-out: IC50 anti-H1N1"}, "HIV/H5N1 pseudovirus [3]": {"tested_on": "HIV/H5N1 pseudovirus", "format": "cell-based, influenza A virus A/Goose/Qinghai/59/05 (H5N1)", "conditions": "read-out: IC50 HIV/H5N1"}, "[4]": {"tested_on": "A/Puerto Rico/8/34 (H1N1)", "format": "cell-based, influenza A virus H1N1", "conditions": "read-out: IC50 H1N1 plaque reduction"}, "[5]": {"tested_on": "HIV/H5N1 pseudovirus HA-mediated hemolysis", "conditions": "read-out: IC50 hemolysis inhibition; pH 5"}, "HIV/H5N1 pseudovirus [6]": {"tested_on": "HIV/H5N1 pseudovirus", "format": "cell-based, influenza A virus H5N1", "conditions": "10 µM"}, "[7]": {"tested_on": "H1N1-GFP (A/Puerto Rico/8/34, NS1-GFP)", "format": "cell-based, influenza A virus H1N1"}, "A/HongKong/2/68 (H3N2)": {"tested_on": "A/HongKong/2/68 (H3N2)", "format": "cell-based, influenza A virus H3N2"}, "VN04Low (H5N1)": {"tested_on": "VN04Low (H5N1)", "format": "cell-based, influenza A virus H5N1", "conditions": "read-out: IC50 H5N1 plaque reduction"}, "[8]": {"tested_on": "VN04Low (H5N1), A/Vietnam/1203/04", "format": "cell-based, influenza A virus H5N1"}, "[9]": {"tested_on": "A/rhea/North Carolina/39482/93 (H7N1)", "format": "cell-based, influenza A virus H7N1"}, "[10]": {"tested_on": "A/Puerto Rico/8/34 (H1N1)", "conditions": "oral administration; ref van Dongen et al., 2019; cited from earlier work"}}, "note": "pIC50: −log10 of the molar value."}
{"smiles": "CC(=O)N[C@H]1[C@H]([C@H](O)[C@H](O)CO)O[C@@](O[C@H]2[C@@H](O)[C@@H](CO)O[C@@H](O[C@H]3[C@H](O)[C@@H](O)C(O)O[C@@H]3CO)[C@@H]2O)(C(=O)O)C[C@@H]1O", "note": "(stereo partly shown) [2,3-sialyllactose]", "values": [{"measurement": "inhibition of HA (H5) protein binding at 9 mM", "setting": "[1]", "value": "inhibited protein binding completely"}, {"measurement": "pIC50", "setting": "[1]", "value": 2.74}]}
{"smiles": "CC(=O)N[C@H]1[C@H]([C@H](O)[C@H](O)CO)O[C@@](OC[C@H]2O[C@@H](O[C@H]3[C@H](O)[C@@H](O)C(O)O[C@@H]3CO)[C@H](O)[C@@H](O)[C@H]2O)(C(=O)O)C[C@@H]1O", "note": "(stereo partly shown) [2,6-sialyllactose]", "values": [{"measurement": "inhibition of HA (H5) protein binding at 27 mM", "setting": "[1]", "value": 47, "unit": "%"}, {"measurement": "pIC50", "setting": "[1]", "value": 1.53}]}
{"smiles": "CC(C)N1CCC(NC(=O)c2c(Cl)cccc2Cl)CC1", "note": "[CBS1117]", "values": [{"measurement": "CC50", "setting": "A549 cells", "value": 274, "unit": "µM"}, {"measurement": "pIC50", "setting": "[2]", "value": 7.15}]}
{"smiles": "CC(C)N1CCC(NC(=O)c2ccc(Cl)cc2Cl)CC1", "note": "[CBS1116, 2,4-dichloro-N-(1-isopropyl-4-piperidinyl) benzamide]", "values": [{"measurement": "pIC50", "setting": "HIV/H5N1 pseudovirus [3]", "value": 5.41}, {"measurement": "pIC50", "setting": "[4]", "value": 6.40}, {"measurement": "pIC50", "setting": "[5]", "value": 5.22}, {"measurement": "inhibition of HIV/H5N1 infection, added at 0h", "setting": "HIV/H5N1 pseudovirus [6]", "value": "~ 99%"}, {"measurement": "inhibition of HIV/H5N1 infection, added at +1h", "setting": "HIV/H5N1 pseudovirus [6]", "value": 75, "unit": "%"}, {"measurement": "inhibition of HIV/H5N1 infection, added at +2h", "setting": "HIV/H5N1 pseudovirus [6]", "value": 41, "unit": "%"}, {"measurement": "inhibition of HIV/H5N1 infection, added at -1h", "setting": "HIV/H5N1 pseudovirus [6]", "value": "no inhibition"}, {"measurement": "H1N1-GFP infection at 5 μM", "setting": "[2]", "value": "completely blocked"}, {"measurement": "concentration at which significant inhibition of H1N1 was observed", "setting": "[2]", "value": 5, "unit": "µM"}, {"measurement": "pIC50", "setting": "[2]", "value": 6.40}, {"measurement": "cell toxicity to MDCK cells", "setting": "MDCK cells", "value": "no cell toxicity"}, {"measurement": "HA protein still bound to the cells", "setting": "[1]", "value": 100, "unit": "%"}, {"measurement": "cells infected by H1N1-GFP, added at 0h", "setting": "[7]", "value": 0, "unit": "%"}, {"measurement": "cells infected by H1N1-GFP, added at +1h", "setting": "[7]", "value": 17, "unit": "%"}, {"measurement": "cells infected by H1N1-GFP, added at +2h", "setting": "[7]", "value": 26, "unit": "%"}, {"measurement": "cells infected by H1N1-GFP, added at +3h", "setting": "[7]", "value": 33, "unit": "%"}, {"measurement": "cells infected by H1N1-GFP, added at -1h", "setting": "[7]", "value": 38, "unit": "%"}, {"measurement": "inhibition against H3N2", "setting": "A/HongKong/2/68 (H3N2)", "value": "no inhibition"}, {"measurement": "pIC50", "setting": "VN04Low (H5N1)", "value": 4.86}, {"measurement": "inhibitory activity against VN04Low strain", "setting": "[8]", "value": "inhibitory activity against VN04Low strain in a concentration-dependent manner"}, {"measurement": "inhibition against H7N1", "setting": "[9]", "value": "no inhibition"}]}
{"smiles": "CC(=O)Nc1ccc2oc(-c3ccnc(C(=O)N4CCN([C@H](c5ccccc5)c5nnn(C)n5)CC4)c3)nc2c1", "note": "[JNJ4796]", "values": [{"measurement": "protection of mice against H1N1 challenge", "setting": "[10]", "value": "protects mice"}]}
